Data from ChEMBL document CHEMBL3045142, “Several Antifeedants from Neem Oil,Azadirachta indicaA. Juss., againstReticulitermes speratusKolbe (Isoptera: Rhinotermitidae)” (1992).

Tests used:
Assay type in all cases: functional
Reticulitermes speratus [1] = assay: Antifeedant activity against Reticulitermes speratus assessed as survival at 500 ug/disk after 30 days by no-choice bioassay (reference value: 92.5%); settings: 720 h
Reticulitermes speratus [2] = assay: Antifeedant activity against Reticulitermes speratus assessed as antifeedant consumption at 100 ug/disk after 30 days by no-choice bioassay
Reticulitermes speratus [3] = assay: Antifeedant activity against Reticulitermes speratus assessed as antifeedant consumption at 300 ug/disk after 30 days by no-choice bioassay
Reticulitermes speratus [4] = assay: Antifeedant activity against Reticulitermes speratus assessed as antifeedant consumption at 200 ug/disk after 30 days by no-choice bioassay
Reticulitermes speratus [5] = assay: Antifeedant activity against Reticulitermes speratus assessed as antifeedant consumption at 400 ug/disk after 30 days by no-choice bioassay
Reticulitermes speratus [6] = assay: Antifeedant activity against Reticulitermes speratus assessed as survival at 300 ug/disk after 30 days by no-choice bioassay (reference value: 92.5%); settings: 720 h
Reticulitermes speratus [7] = assay: Antifeedant activity against Reticulitermes speratus assessed as survival at 100 ug/disk after 30 days by no-choice bioassay (reference value: 92.5%); settings: 720 h
Reticulitermes speratus [8] = assay: Antifeedant activity against Reticulitermes speratus assessed as antifeedant consumption at 500 ug/disk after 30 days by no-choice bioassay
Reticulitermes speratus [9] = assay: Antifeedant activity against Reticulitermes speratus assessed as survival at 400 ug/disk after 30 days by no-choice bioassay (reference value: 92.5%); settings: 720 h
Reticulitermes speratus [10] = assay: Antifeedant activity against Reticulitermes speratus assessed per disk after 30 days by no-choice bioassay
Reticulitermes speratus [11] = assay: Antifeedant activity against Reticulitermes speratus assessed as survival at 200 ug/disk after 30 days by no-choice bioassay (reference value: 92.5%); settings: 720 h
Reticulitermes speratus [12] = assay: Antifeedant activity against Reticulitermes speratus assessed as survival at 125 ug/disk after 30 days by no-choice bioassay (reference value: 92.5%); settings: 720 h
Reticulitermes speratus [13] = assay: Antifeedant activity against Reticulitermes speratus assessed as survival at 25 ug/disk after 30 days by no-choice bioassay (reference value: 92.5%); settings: 720 h
Reticulitermes speratus [14] = assay: Antifeedant activity against Reticulitermes speratus assessed as survival at 75 ug/disk after 30 days by no-choice bioassay (reference value: 92.5%); settings: 720 h
Reticulitermes speratus [15] = assay: Antifeedant activity against Reticulitermes speratus assessed as antifeedant consumption at 50 ug/disk after 30 days by no-choice bioassay
Reticulitermes speratus [16] = assay: Antifeedant activity against Reticulitermes speratus assessed as survival at 150 ug/disk after 30 days by no-choice bioassay (reference value: 92.5%); settings: 720 h
Reticulitermes speratus [17] = assay: Antifeedant activity against Reticulitermes speratus assessed as reduction in feeding at 100 to 200 ug/disk after 30 days by no-choice bioassay relative to vehicle-control; set-up: scale not given: the % may be the effect or the level left
Reticulitermes speratus [18] = assay: Antifeedant activity against Reticulitermes speratus assessed as survival at 50 ug/disk after 30 days by no-choice bioassay (reference value: 92.5%); settings: 720 h
Reticulitermes speratus [19] = assay: Antifeedant activity against Reticulitermes speratus assessed as antifeedant consumption at 125 ug/disk after 30 days by no-choice bioassay
Reticulitermes speratus [20] = assay: Antifeedant activity against Reticulitermes speratus assessed as antifeedant consumption at 75 ug/disk after 30 days by no-choice bioassay
Reticulitermes speratus [21] = assay: Antifeedant activity against Reticulitermes speratus assessed as antifeedant consumption at 25 ug/disk after 30 days by no-choice bioassay
Reticulitermes speratus [22] = assay: Antifeedant activity against Reticulitermes speratus assessed as antifeedant consumption at 150 ug/disk after 30 days by no-choice bioassay
Reticulitermes speratus [23] = assay: Antifeedant activity against Reticulitermes speratus assessed as reduction in feeding at 50 ug/disk after 30 days by no-choice bioassay relative to vehicle-control; set-up: scale not given: the % may be the effect or the level left
Reticulitermes speratus [24] = assay: Antifeedant activity against Reticulitermes speratus assessed as survival at 7.5 ug/disk after 30 days by no-choice bioassay (reference value: 92.5%); settings: 720 h
Reticulitermes speratus [25] = assay: Antifeedant activity against Reticulitermes speratus assessed as survival at 5 ug/disk after 30 days by no-choice bioassay (reference value: 92.5%); settings: 720 h
Reticulitermes speratus [26] = assay: Antifeedant activity against Reticulitermes speratus assessed as antifeedant consumption at 5 ug/disk after 30 days by no-choice bioassay
Reticulitermes speratus [27] = assay: Antifeedant activity against Reticulitermes speratus assessed as survival at 10 ug/disk after 30 days by no-choice bioassay (reference value: 92.5%); settings: 720 h
Reticulitermes speratus [28] = assay: Antifeedant activity against Reticulitermes speratus assessed as antifeedant consumption at 10 ug/disk after 30 days by no-choice bioassay
Reticulitermes speratus [29] = assay: Antifeedant activity against Reticulitermes speratus assessed as antifeedant consumption at 7.5 ug/disk after 30 days by no-choice bioassay

Compound | Activity (Reticulitermes speratus [2]) [µg] | survival at 300 µg/disc (Reticulitermes speratus [6]) [%] | survival at 100 µg/disc (Reticulitermes speratus [7]) [%] | survival at 400 µg/disc (Reticulitermes speratus [9]) [%] | PC50 (Reticulitermes speratus [10]) [µg] | PC95 (Reticulitermes speratus [10]) [µg] | survival at 200 µg/disc (Reticulitermes speratus [11]) [%] | Activity (Reticulitermes speratus [15]) [µg] | Activity (Reticulitermes speratus [17]) [%] | survival at 50 µg/disc (Reticulitermes speratus [18]) [%] | further results
CC(=O)O[C@@H]1C[C@H]2C(C)(C)C(=O)C=C[C@]2(C)[C@H]2CC[C@]3(C)C(=CC(=O)[C@H]3c3ccoc3)[C@@]21C [AZADIRADIONE] | 55.1 | 39 | 73 | 24.5 | 238.5 | 827.5 | 65.5 | – | – | – | survival at 500 µg/disc (Reticulitermes speratus [1]): 0.5%; Activity (Reticulitermes speratus [3]): 62.9 µg; Activity (Reticulitermes speratus [4]): 79.3 µg; Activity (Reticulitermes speratus [5]): 49.5 µg; Activity (Reticulitermes speratus [8]): 2 µg
COC(=O)C[C@H]1[C@]2(C)C3=C(C)[C@H](c4ccoc4)C[C@H]3O[C@@H]2[C@H](OC(C)=O)[C@@H]2[C@]1(C)C(=O)C=C[C@@]2(C)C(=O)OC [NIMBIN] | – | 83 | 84 | 83 | – | – | 84.5 | – | – | – | survival at 500 µg/disc (Reticulitermes speratus [1]): 80.5%
C/C=C(/C)C(=O)O[C@H]1C[C@@H](OC(C)=O)[C@@]2(C)CO[C@H]3[C@H]4O[C@@H]5C[C@@H](c6ccoc6)C(C)=C5[C@@]4(C)[C@H](CC(=O)OC)[C@]1(C)[C@@H]32 [SALANNIN] | 1.4 | – | 40 | – | 19.5 | 203.3 | – | 1.8 | 80 | 58.7 | survival at 125 µg/disc (Reticulitermes speratus [12]): 17.3%; survival at 25 µg/disc (Reticulitermes speratus [13]): 90.7%; survival at 75 µg/disc (Reticulitermes speratus [14]): 29.3%; survival at 150 µg/disc (Reticulitermes speratus [16]): 30.7%; Activity (Reticulitermes speratus [19]): 0.8 µg; Activity (Reticulitermes speratus [20]): 0.8 µg; Activity (Reticulitermes speratus [21]): 3.7 µg; Activity (Reticulitermes speratus [22]): 0.5 µg
CC(=O)O[C@@H]1C[C@H]2C(C)(C)C(=O)C=C[C@]2(C)[C@H]2CC[C@]3(C)C(=CC(=O)[C@@]3(O)c3ccoc3)[C@@]21C [17-HYDROXYAZADIRADIONE] | 16.5 | 33.5 | 61 | – | 67.8 | 235.6 | 50 | 17.8 | 80 | 73 | Activity (Reticulitermes speratus [3]): 8.6 µg; Activity (Reticulitermes speratus [4]): 9.4 µg
CC(=O)O[C@@H]1C[C@H]2C(C)(C)C(=O)C=C[C@]2(C)[C@H]2CC[C@@]3(C)[C@H](c4ccoc4)OC(=O)[C@H]4O[C@]43[C@@]21C [GEDUNIN] | 11 | – | 39.3 | – | 49 | 218.4 | – | 9 | 80 | 51.3 | survival at 125 µg/disc (Reticulitermes speratus [12]): 23.3%; survival at 25 µg/disc (Reticulitermes speratus [13]): 82%; survival at 75 µg/disc (Reticulitermes speratus [14]): 49.3%; survival at 150 µg/disc (Reticulitermes speratus [16]): 13.3%; Activity (Reticulitermes speratus [19]): 6.8 µg; Activity (Reticulitermes speratus [20]): 10.5 µg; Activity (Reticulitermes speratus [21]): 8.5 µg; Activity (Reticulitermes speratus [22]): 5 µg
CC1(C)C(=O)C=C[C@]2(C)[C@H]3CC[C@@]4(C)[C@H](c5ccoc5)OC(=O)[C@H]5O[C@]54[C@]3(C)[C@H](O)C[C@@H]12 [DEACETYLGEDUNIN] | 7.2 | – | 12 | – | 22.5 | 113.7 | – | 4.7 | – | 20 | Activity (Reticulitermes speratus [23]): 80.38%; survival at 7.5 µg/disc (Reticulitermes speratus [24]): 87.3%; survival at 5 µg/disc (Reticulitermes speratus [25]): 91.3%; survival at 25 µg/disc (Reticulitermes speratus [13]): 45.3%; Activity (Reticulitermes speratus [26]): 2.2 µg; survival at 10 µg/disc (Reticulitermes speratus [27]): 73.3%; Activity (Reticulitermes speratus [28]): 3.2 µg; Activity (Reticulitermes speratus [29]): 3.1 µg; Activity (Reticulitermes speratus [21]): 4.7 µg
CC(=O)O[C@@H]1C[C@H]2C(C)(C)C(=O)C=C[C@]2(C)[C@H]2CC[C@]3(C)C(=CC(=O)[C@@H]3c3ccoc3)[C@@]21C [17-EPIAZADIRADIONE] | – | 86.5 | 85.5 | 86.5 | – | – | 85.5 | – | – | 87 | –
COC(=O)C[C@H]1[C@]2(C)C3=C(C)[C@H](c4ccoc4)C[C@@H]3O[C@@H]2[C@H](O)[C@@H]2[C@@]1(C)C(=O)C=C[C@@]2(C)O | 19.9 | – | – | – | 96 | 245.4 | – | 16.3 | 80 | – | Activity (Reticulitermes speratus [4]): 6.4 µg; Activity (Reticulitermes speratus [20]): 25.2 µg; Activity (Reticulitermes speratus [22]): 10 µg
CC(=O)O[C@@H]1C[C@H]2C(C)(C)C(=O)C=C[C@]2(C)[C@H]2CC[C@@]3(C)[C@H](c4ccoc4)C(=O)[C@H]4O[C@]43[C@@]21C [EPOXYAZADIRADIONE] | – | 76.5 | 75.5 | 64 | – | – | 77 | – | – | – | –
C/C=C(\C)C(=O)O[C@H]1C[C@@H](O)[C@@]2(C)CO[C@H]3[C@H]4O[C@@H]5C[C@@H](c6ccoc6)C(C)=C5[C@@]4(C)[C@H](CC(=O)OC)[C@]1(C)[C@@H]32 [DESACETYL SALANNIN] | – | 49 | 72 | 44 | 55.2 | 1373.1 | 58 | – | – | – | –
COC(=O)C[C@H]1[C@]2(C)C3=C(C)[C@H](c4ccoc4)C[C@H]3O[C@@H]2[C@H](O)[C@@H]2[C@]1(C)C(=O)C=C[C@@]2(C)C(=O)OC [DEACETYLNIMBIN] | – | 74 | 85 | – | 280.6 | 1581.2 | 78.5 | – | – | 87.5 | –
